The test system of one assay is Lewis lung carcinoma. In words: Lewis lung carcinoma metastatic model in C57BL/6 mice. The class given is in vivo. The conditions noted are these: for Activity: weight gain of lung: 100 mg/kg/day, treatment from day three, vehicle 0.40 g. On the procedure:
(§1) Antitumor activity has been evaluated for the S(−) and the R(+)4-amino-thalidomide enantiomers as follows. For the HsS cell line, 2 million cells are injected into the tail vein of 8 week old, female, SCID mice. Treatment is initiated after two weeks and continued daily until the mice die or show hind limb paralysis. Results are expressed as mean time to death in treated versus control animals. For the Lewis lung model, 2.5×10(5) cells are injected intravenously into the tail vein of 6-8 week old, male, C57BL/6 mice and treatment is initiated on day three. The time period of treatment is usually 11-15 days in duration. After sacrifice by CO^2 asphyxiation, lungs (where tumors seed and grow) are removed, rinsed in water, patted dry, and weighed. Mean lung weights of age-matched, non-tumor bearing mice are subtracted from the weight of treated, tumor-bearing mice with results expressed as lung weight gain in treated versus control animals. Table 1 summarizes data from in vivo experiments in lung and plasma cell tumor metastatic tumor systems, comparing the antitumor activity of the three enantiomeric preparations of 4-amino thalidomide.

The subject of a further assay is HS-Sultan cells. In words: XTT proliferation assay with HS-Sultan cells. The class given is cell-based. The conditions noted are these: 72 hour treatment, FIG. 1. From the text: The Roche Cell Proliferation Kit II (XTT) is an useful assay for screening the relative efficacy of small molecules. The assay quantitatively determines cellular proliferation in response to agonists and/or antagonists of proliferation. It is based on the cleavage of the yellow tetrazolium salt (XTT) by metabolically active/viable cells to form an orange formazan dye. The formation of the soluble dye allows direct quantification using a scanning mulitwell spectrophotometer. An increase in the number of living cells (resulting from proliferation) results in a greater production of formazan dye which corresponds to an increase in the absorbance value.
When evaluating analogs of thalidomide, or the like, we have employed HS-Sultan cells in an in vitro XTT assay. […] When the treatment/labeling period is complete, the plate is read on a spectrophotometric plate reader at a wavelength of 470 nm and a 650 nm reference wavelength. For individual experiments, the average absorbance values (with background subtracted) for each treatment are plotted against the concentration. A larger absorbance value corresponds to a greater amount of proliferation. A negative control (untreated cells) is used as a point of reference; an absorbance value less than the control reflects inhibition of proliferation. […]
In general terms: Tetrazolium assays rely on reduction of a dye to a coloured formazan, in cell work by metabolically active cells.

The subject of another assay is HsSultan B-cell lymphoma. Briefly: HsSultan B-cell lymphoma metastatic model in SCID mice. The class given is in vivo. The conditions noted are these: for Activity: mean time to death: daily from two weeks after i.v. cell injection, vehicle 26 days. As to the method:
as §1

Assay [1] concerns VEGF induced neovascularization. Briefly: Corneal micropocket assay, VEGF pellet. The class given is in vivo, C57BL/6J mice. The conditions noted are these: 50 mg/kg i.p. daily for six days, n=9 each, P<0.001, FIG. 2. As to the method:
(§2) A corneal micropocket assay was performed as described in Kenyon, et al., A Model of Angiogenesis in the Mouse Cornea, Invest. Ophtalmol. & Vis. Sci., 37, 1625-1632 (1996), which is incorporated herein in its entirety. Pellets were used containing 80 ng of bFGF or human recombinat VEGF (R&D Systems, Minneapolis, Minn.) in C57BL/6J mice. […] Differences in VEGF induced neovascularization between S(−)-3APG and control were significant (n=9 each, P<0.001), as were differences between S(−)-3APG and thalidomide (n=9 each, P<0.01).

Assay [2] deals with bFGF induced neovascularization. Briefly: Corneal micropocket assay, bFGF pellet. In kind it is in vivo, C57BL/6J mice. The conditions noted are these: 50 mg/kg i.p. daily for five days, n=9 each, P<0.0001, FIG. 2. On the procedure: as §2

Consider three compounds from patent US8153806B2, “Synthesis of 4-amino-thalidomide enantiomers” (The Children's Medical Center Corporation, priority 2000, dated 2012).

For `Nc1cccc2c1C(=O)N([C@@H]1CCC(=O)NC1=O)C2=O` [R(+)-4-amino-thalidomide], the “Activity: weight gain of lung” value in the assay with Lewis lung carcinoma worked out at 0.42 g. Besides, the “anti-cellular proliferation activity (XTT, treatment over control)” value in the assay with HS-Sultan cells is “show anti-cellular proliferation activity”. Further, the “Activity: mean time to death” value turned out to be 37 days in the assay on HsSultan B-cell lymphoma (50 mg/kg/day) and 31 days with HsSultan B-cell lymphoma (200 mg/kg/day).
Consider `Nc1cccc2c1C(=O)N(C1CCC(=O)NC1=O)C2=O` (stereo not drawn) [R, S, 4-amino-thalidomide], for which the “Activity: weight gain of lung” value in the assay with Lewis lung carcinoma came out at 0.27 g. In addition, the “Activity: mean time to death” value in the assay on HsSultan B-cell lymphoma (50 mg/kg/day) is on record as 41 days; in the assay on HsSultan B-cell lymphoma (200 mg/kg/day) it was 28 days.
Turning to `Nc1cccc2c1C(=O)N([C@H]1CCC(=O)NC1=O)C2=O` [S(−)-4-amino-thalidomide, S(−)-4-Amino-thalidomide], the “Activity: weight gain of lung” value in the assay on Lewis lung carcinoma came out at 0.17 g. Moreover, the “antitumor activity compared among the enantiomeric preparations of 4-amino thalidomide” value in the assay on Lewis lung carcinoma (summary of Table 1) and with HsSultan B-cell lymphoma (summary of Table 1) was “most active enantiomer” in each case. In the assay on HS-Sultan cells, the “anti-cellular proliferation activity (XTT, treatment over control)” value is reported as “show anti-cellular proliferation activity”. The “Activity: mean time to death” value in the assay on HsSultan B-cell lymphoma (50 mg/kg/day) and with HsSultan B-cell lymphoma (200 mg/kg/day) was 47 days throughout. Besides, the “difference in VEGF induced neovascularization versus control” value in assay [1] is recorded as “significant”. Besides, the “difference in bFGF induced neovascularization versus control” value in assay [2] is “significant”.
